Source: patent publication US5000966A, “Quality improvement of alcoholic liquors by enzymatic decomposing of ethyl carbamate” (Takeda Chemical Industries, Ltd., priority 1987, dated 1991)

Test system: Candida krusoides ATCC 7345 enzyme capable of decomposing ethyl carbamate (partially purified crude enzyme of Example 5)
Assay: Km of the ethyl carbamate-decomposing enzyme (ammonia formation, nitroprusside method)
Format: biochemical
Settings: pH 4, 0.2M citrate buffer; substrate not given, taken as ethyl carbamate
Method: The activity of decomposing ethyl carbamate in the culture broth or its processed matter was determined colorimetrically by the nitroprusside method on ammonia produced by the reaction at 30° C. for 30 minutes of the mixture of a volume of a suspension of the cells in sterilized deionized water collected by centrifugation of the culture which had been diluted appropriately, […] The amount of enzyme to produce one micromole of ammonia per unit time (one minute) is expressed as 1 unit (1U). Candida krusoides ATCC 7345 was cultivated in the same manner as described in Example 1 to give 2 l of a culture broth having an activity of 0.007 U/ml for decomposing ethyl carbamate. The cells were collected from the culture broth by centrifugation, washed with 0.05M phosphate buffer (pH 7.2) twice, suspended in a solution containing 1 mM of EDTA and 1 mM of dithiothreitol, broken down by treating with a cell mill containing glass beads having 0.1-0.2 mm in diameter and were treated at 4500 rpm for 20 minutes The treated product was centrifuged and to the supernatant was added ammonium sulfate so that the concentration comes to 90%. […]

**Q.** For `CCOC(N)=O` [ethyl carbamate], which Km is on record?
**A.** 65 mM
